Test results: paper PMC7403315, “Cyclic peptide FXII inhibitor provides safe anticoagulation in a thrombosis model and in artificial lungs” (Nature Communications, 2020)
Where “and” joins values, the source holds several entries; their conditions need not be identical. Identical values can stand only once. Like-named read-outs stand apart in the source and are kept apart here. Starred links: 1 amine or outer side, 2 acyl side, 3 side chain; linkers in the order of their positions; H or OH if unused. Positions of bridges follow the written chain, without caps; N, C: chain ends. Non-standard residues stand in square brackets, D forms with d. Residues, ends and D or L forms follow the SMILES beside them. TATA = O=C(CC[*:1])N1CN(C(=O)CC[*:2])CN(C(=O)CC[*:3])C1; Phe(4-F) = N[C@@H](Cc1ccc(F)cc1)C(=O)O; β3hR = N=C(N)NCCC[C@H](N)CC(=O)O

Tests used:
[1] = Plasma stability assay (residual FXIIa inhibitory activity after plasma incubation); type: in vitro ADME, human; conditions: for Residual activity of inhibitor: human plasma 37 °C; for half-life at 10 μM: human, plasma
Protocol: Peptide (2 μl of 2 mM in H2O) was added to 398 μl of citrated human plasma (Innovative Research) to obtain a final peptide concentration of 10 μM. The mixture was incubated in a water bath at 37 °C. At different time points (0, 0.5, 1, 2, 4, 8, 12, 24, 48, and 96 h), samples of 30 μl were removed, diluted to 200 μl with aqueous buffer (10 mM Tris-HCl, pH 7.4, 150 mM NaCl, 10 mM MgCl2, 1 mM CaCl2), and incubated for 20 min at 65 °C to inactivate plasma proteases. The peptide/plasma samples were stored at −20 °C until the residual inhibitory activity of the peptides was measured in a FXIIa inhibition assay. […] IC50 values were derived from the fitted curve using an equation described in the Supplementary Methods. Residual inhibition in % was calculated using the equation IC50,0h/IC50,xh*100, wherein IC50,0h is the functional strength of the inhibitor at time point 0 and IC50,xh the functional strength of the inhibitor after one of the different plasma incubation periods mentioned above.

[2] = Plasma degradation assay (LC-MS); type: in vitro ADME, mouse; conditions: 37 °C
Protocol: Plasma stability and peptide cleavage sites were assessed by incubating the bicyclic peptides in mouse plasma and analyzing the products with an LC-MS system (LCMS-2020, Shimadzu). Peptide (2 μl of 2 mM in H2O) was added to 48 μl of citrated mouse plasma (Innovative Research) to obtain a final peptide concentration of 80 μM. The mixture was incubated in a water bath at 37 °C. At different time points (0, 15, 24, 72, 96, 120, and 144 h), samples of 5 μl were removed, mixed with 5 μl of 6 M guanidinium hydrochloride, and incubated for 30 min at RT. Plasma proteins were precipitated by incubation with 200 μl of ice cold EtOH and 0.1% (v/v) formic acid for 30 min and centrifuged at 9000 × g for 20 min at 4 °C. […] The residue was dissolved in 40 µl of deionized water containing 0.1% (v/v) CHOOH and analyzed by LC-MS. The samples were analyzed using an analytical C18 column (Phenomenex C18 Kinetex column, 50 × 2.1 mm, 2.6 μm, 100 Å) and a linear gradient of 5–35% solvent B (MeCN, 0.05% [v/v] CHOOH) in solvent A (H2O, 0.05% [v/v] CHOOH) in 5.5 min at a flow of 1 ml per min. The masses of the intact peptide and degradation products were measured on a single quadrupole mass spectrometer in positive ion mode using electrospray ionization. Peptides were quantified based on the absolute intensities of the detected mass peaks (M^3+ and M^4+).

[3] = Pharmacokinetic study in pigs (plasma concentration by LC-MS); type: in vivo, pig
Protocol: Swiss large white pigs, both sexes, 3–4 months old (30 ± 5 kg) were anesthetized and prepared following procedures used to study myocardial ischemia/reperfusion injury. In this procedure, the ACT is monitored and 2500 IU of heparin are injected when ACT values fall below 180 s. Pigs were injected intravenously with 4 mg kg^−1 of FXII900 dissolved in 1 ml PBS, pH 7.4. […] The concentration of FXII900 in the plasma samples was determined by LC-MS as described below.
The concentration of FXII900 in the plasma samples was quantified based on peak intensities of total ion current (TIC) chromatograms acquired by LC-MS (LCMS-2020, Shimadzu). To 15 μl of plasma sample, 1 μM of internal standard peptide and 5 μl of 6 M guanidinium hydrochloride solution were added and mixed. Plasma proteins were precipitated by the addition of 400 µl of ice cold ethanol (99.9% [v/v] EtOH, 0.1% [v/v] TFA) and incubated on ice for one hour. Precipitate was removed by centrifugation (9000 × g, 20 min, 4 °C) and the supernatant dried by centrifugal evaporation under vacuum. Dried samples were dissolved by sequentially adding 2 μl of DMSO and 18 μl of H2O containing 0.1% (v/v) CHOOH and analyzed by LC-MS. The samples were analyzed using an analytical C18 column (Phenomenex C18 Kinetex column, 50 × 2.1 mm, 2.6 µm, 100 Å) and a linear gradient of 5–30% solvent B (MeCN, 0.05% [v/v] CHOOH) in solvent A (H2O, 0.05% [v/v] CHOOH) in 4.5 min at a flow of 1 ml per min. The mass was measured on a single quadrupole mass spectrometer in positive ion mode using electrospray ionization. Peptides were quantified based on the absolute intensities of the detected mass peaks (M^3+ and M^4+).

[4] = human; cited from earlier work

In the case of `CC(C)C[C@@H]1NC(=O)[C@H](CCC(N)=O)NC(=O)[C@H](Cc2c[nH]cn2)NC(=O)[C@@H]2CSCCC(=O)N3CN(CN(C3)C(=O)CCSC[C@H](NC(=O)[C@@H](CO)NC(=O)[C@H](N)CCCNC(=N)N)C(=O)N[C@@H](Cc3ccc(F)cc3)C(=O)N[C@@H](CCCNC(=N)N)C(=O)N[C@@H](CC(C)C)C(=O)N3CCC[C@H]3C(=O)N2)C(=O)CCSC[C@@H](C(N)=O)NC(=O)C[C@H](CCCNC(=N)N)NC1=O` [FXII900] (H-[dR][dS]C[Phe(4-F)]RLPCHQL[β3hR]C-NH2; linker 3-8-13 via TATA), the “Residual activity of inhibitor” value ([1]; incubation time 0 h) is reported as 100%, the “Residual activity of inhibitor” value ([1]; incubation time 1 h) is reported as 95.4017% and 101.157% and the “Residual activity of inhibitor” value ([1]; incubation time 2 h) is reported as 110.888% and 102.799%. For the same compound, the “Residual activity of inhibitor” value ([1]; incubation time 4 h) was 107.121% and 93.1543%, the “Residual activity of inhibitor” value ([1]; incubation time 8 h) was 88.5873% and 105.225% and the “Residual activity of inhibitor” value ([1]; incubation time 12 h) was 112.249% and 90.2639%. For the same compound, the “Residual activity of inhibitor” value ([1]; incubation time 24 h) was 92.7385% and 98.9596%, the “Residual activity of inhibitor” value ([1]; incubation time 48 h) was 82.5714% and 71.5934% and the “Residual activity of inhibitor” value ([1]; incubation time 96 h) was 52.5% and 56.04%. For the same compound, the half-life at 10 μM ([1]; 37 °C, remaining FXIIa inhibitory activity, read-out: half-life in human plasma (converted)) was 128 h, the half-life at 10 μM ([1]; t1/2 in plasma) was > 120 h and the “degradation products by mass spectrometric analysis of plasma samples” value [2] was “no degradation products”. For the same compound, the clearance ([3]; both sexes, Swiss large white, pig, plasma, intravenous, 4 mg kg^−1, read-out: clearance rate (CL)) was 11.8 ± 1.8 mL/min/kg, the Cmax ([3]; both sexes, Swiss large white, pig, plasma, intravenous, 4 mg kg^−1, read-out: maximal concentration) was ~7000 nM and the half-life ([3]; both sexes, Swiss large white, pig, plasma, intravenous, 4 mg kg^−1, read-out: t1/2 (t1/2 β)) was 0.6 ± 0.0833 h. The Vd ([3]; both sexes, Swiss large white, pig, plasma, intravenous, 4 mg kg^−1, read-out: volume of distribution (VD)) was 0.61 ± 0.14 L/kg, the level at time molar at 4 min ([3]; both sexes, Swiss large white, pig, plasma, iv, 4 mg/kg, intravenous administration, 4 min, individual pigs and analyses, read-out: Plasma conc.) was 7470 nM and the level at time molar at […] ([3]; both sexes, Swiss large white, pig, plasma, iv, 4 mg/kg, intravenous administration, 15 min, individual pigs and analyses, read-out: Plasma conc.) was 2710 nM. For the same compound, the level at time molar at 16 min ([3]; both sexes, Swiss large white, pig, plasma, iv, 4 mg/kg, intravenous administration, 16 min, individual pigs and analyses, read-out: Plasma conc.) was 3720 nM, the level at time molar at 35 min ([3]; both sexes, Swiss large white, pig, plasma, iv, 4 mg/kg, intravenous administration, 35 min, individual pigs and analyses, read-out: Plasma conc.) was 1290 nM and the level at time molar at 0.6 h ([3]; both sexes, Swiss large white, pig, plasma, iv, 4 mg/kg, intravenous administration, 36 min, individual pigs and analyses, read-out: Plasma conc.) was 1780 nM. It also gave a level at time molar at 65 min ([3]; both sexes, Swiss large white, pig, plasma, iv, 4 mg/kg, intravenous administration, 65 min, individual pigs and analyses, read-out: Plasma conc.) of 692 nM, a level at time molar at 1.1 h ([3]; both sexes, Swiss large white, pig, plasma, iv, 4 mg/kg, intravenous administration, 66 min, individual pigs and analyses, read-out: Plasma conc.) of 799 nM and a level at time molar at 2 h ([3]; both sexes, Swiss large white, pig, plasma, iv, 4 mg/kg, intravenous administration, 120 min, individual pigs and analyses, read-out: Plasma conc.) of 278 nM. The “Plasma conc.” value ([3]; intravenous administration, 4 min, individual pigs and analyses) was 7458 nM and 7475 nM and the “Plasma conc.” value ([3]; intravenous administration, 35 min, individual pigs and analyses) was 1282 nM.

In the case of `CC(C)C[C@@H]1NC(=O)[C@H](CCC(N)=O)NC(=O)[C@H](CCCNC(=N)N)NC(=O)[C@@H]2CSCCC(=O)N3CN(CN(C3)C(=O)CCSC[C@H](NC(=O)[C@@H](N)CCCNC(=N)N)C(=O)N[C@@H](Cc3ccccc3)C(=O)N[C@@H](CCCNC(=N)N)C(=O)N[C@@H](CC(C)C)C(=O)N3CCC[C@H]3C(=O)N2)C(=O)CCSC[C@@H](C(=O)N[C@@H](CCCNC(=N)N)C(N)=O)NC(=O)[C@H](CCCNC(=N)N)NC1=O` [FXII618], the “t1/2 of cleavage of N-terminal Arg1 by plasma proteases” value [4] is given as “around 4 h”.
